Results from publication PMC5993284, “Peptide inhibitors of the anaphase promoting-complex that cause sensitivity to microtubule poison” (PLoS ONE, 2018).
Ends that are not written are not given here. * marks the point of attachment. Biotin = O=C1N[C@H]2[C@H](CS[C@H]2CCCCC(=O)*)N1

Tested on: APC/C
Assay: Biotinylated peptide pull-down of purified APC/C, Western blot
Type: binding, Saccharomyces cerevisiae
Conditions: 20 μM biotinylated peptide, purified yeast APC/C, 1 h at 4 °C, streptavidin/Avidin beads, n = 3
Experimental: For APC/C purification, the APC/C which contain Cdc16-TAP-tag was isolated from 2 mL arrested yeast lysate by 120 μL IgG sepharose 6 Fast Flow beads (GE Healthcare Life Sciences) and incubate for 2 h at 4 °C on a rotating wheel. Beads were collected washed with 5 mL of APC/C wash buffer (200 mM Hepes pH8.0, 150 mM NaCl, 10% glycerol). Beads were resuspended in 150 μL of APC/C wash buffer contain 17.6 units of AcTEV protease (Invitrogen, Carlsbad, CA) at 4°C for 3 h with pipetting every 20 minutes. The purified APC/C was collected in the flow-through.
For APC/C binding assays, 20 μM biotinylated peptides or 20 μM peptides only as a negative control were incubated with purified APC/C and 100 μL APC/C wash buffer which contains phosphatase inhibitors (200 mM Hepes pH 8.0, 150 mM NaCl, 10% glycerol, 10 mM NaF, 1 mM NaVO4, 5 mM Na-pyrophosphate, 10 mM 2-glycerol phosphate) for 1 h at 4 °C. The mixtures were applied to 120 μL streptavidin beads (Dynabeads MyOne Streptavidin T1, Invitrogen) for 30 min at 4 °C with gentle pipetting every 10 min. Beads were washed with 1 mL of PBST buffer (Phosphate buffer saline and 0.1% Tween 20) three times SDS-PAGE protein sample was added directly. For APC/C binding competition experiments, the biotinylated peptide and 10-fold excess non-biotinylated peptides were added to purified APC/C at same time.
Free D-biotin in 10% DMSO was used for the control binding assays. For pre-coating APC/C with biotin, a modified APC/C purification was performed. 2 mL yeast lysate was incubated with 120 μL IgG Sepharose beads and additional 20.4 μM free biotin or non-biotin solvent as a positive control was added and samples were incubated for 2 h at 4 °C on a rotating wheel. Purified pre-coated APC/C was then removed from the IgG Sepharose following the standard purification procedure. 20 μM biotinylated peptides or 20 μM peptides as a negative control were incubated with pre-coated APC/C and 100 μL APC/C wash buffer which contain phosphatase inhibitors for 1 h at 4 °C. In addition, 20 μM biotinylated peptide was added and incubated with pre-coated APC/C in a non-biotin containing solvent as positive control. Pre-coated APC/C binding procedures were same as above. For pre-coating streptavidin beads with biotin, streptavidin beads were washed in the presence of 10.2 nmol/mL D-biotin in PBST buffer or non-biotin solvent as a positive control before use. Pre-coated streptavidin beads were incubated with purified APC/C-peptide complexes with an extra […] biotin for 30 minutes with gentle pipetting every 10 min at 4 °C.
Proteins were separated in SDS-PAGE gels and then were transferred to PVDF membrane. Blocking was performed by incubating samples in 20 mL PBST with 5% milk at 4 °C. Rabbit anti-tap (Thermo, CAB1001) was used as primary antibodies at a 1:1000 dilution and incubated for 2 hours at RT. Anti-rabbit HRP (Jackson, USA) was then used as secondary antibody at 1:5000 dilution and incubate for 1 hr at RT. Chemiluminescence signals were detected using an ImageQuant LAS 4000 (GE Healthcare Bio-Sciences, USA). For cell cycle timing Western blots anti-MYC and anti-Actin antibodies were employed (ABCAM, UK).

Substance: DQ36-mut1: DQ36-mut1 where all 5 RILQY residues were changed to alanine AAAAA (Biotin-DMNKAAAAAMPEPPKCSSLRQKSYIMKKRTHYSYQQ)
- binding to APC/C (in words): maintained the ability to pull-down APC/C
